Reference: patent publication US12384852B2, “Genetically modified NK-92 cells having a safety switch” (ImmunityBio, Inc., priority 2015, dated 2025)

What was measured:
[1] = clinical studies; cited from earlier work
NK-92-TK-CD16-IL-2 cells = experiment: Functionality of the TK suicide gene: ganciclovir treatment of mice carrying NK-92-TK-CD16-IL-2 cells; format: in vivo, SCID mice; details: ganciclovir 50 μg i.p. every other day, two or three doses; within 24 hours to 72 hours
Procedure: The mice in the first group are treated with two or three doses of ganciclovir (50 μg) intraperitoneally every other day. The mice in the second group are treated with placebo. […] Expansion of NK-92-TK-CD16-IL-2 cells continues to increase over time in mice treated with placebo.

Compound | tolerability [1] | change in NK-92-TK-CD16-IL-2 cells (NK-92-TK-CD16-IL-2 cells)
CC[C@H](C(=O)N1CCCC[C@H]1C(=O)O[C@H](CCc1ccc(OC)c(OC)c1)c1cccc(OCC(=O)NCCNC(=O)COc2cccc([C@@H](CCc3ccc(OC)c(OC)c3)OC(=O)[C@@H]3CCCCN3C(=O)[C@@H](CC)c3cc(OC)c(OC)c(OC)c3)c2)c1)c1cc(OC)c(OC)c(OC)c1 [AP1903] | well tolerated | –
Nc1nc(O)c2ncn(COC(CO)CO)c2n1 [ganciclovir] | – | significant reduction
